Values quoted from earlier work in patent US11571385B2, “Self-emulsifiable composition, production method therefor, nanoemulsion, and production method therefor” (Kewpie Corporation, priority 2017, dated 2023).

Conditions: solubility in water, Japanese Pharmacopoeia class

solubility, almost not soluble:
COc1ccc2c(c1)c(CC(=O)OCC(=O)O)c(C)n2C(=O)c1ccc(Cl)cc1 [Acemetacin, acemetacin]
COc1ccc2c(c1)c(CC(=O)O)c(C)n2C(=O)c1ccc(Cl)cc1 [Indomethacin, indomethacin]
C=CC[C@@H]1/C=C(\C)C[C@H](C)C[C@H](OC)[C@H]2O[C@@](O)(C(=O)C(=O)N3CCCC[C@H]3C(=O)O[C@H](/C(C)=C/[C@@H]3CC[C@@H](O)[C@H](OC)C3)[C@H](C)[C@@H](O)CC1=O)[C@H](C)C[C@@H]2OC [Tacrolimus, tacrolimus]
